In US10882856B2 (BeiGene, Ltd., priority 2017, dated 2021):

Legend:
IDO1 [1] = target: T1, IDO1 (Homo sapiens, UniProt P14902); assay: Hela cell-based IDO1 assay; details: Hela cells
Summary of the method: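 Kynurenine was measured at 480 nm in trichloroacetic acid-deproteinised supernatant after adding 2% 4-(dimethylamino)benzaldehyde. This supernatant came from HeLa cells seeded at 8000 per well in 96-well plates in phenol red-free DMEM with 10% FBS and, from 4 hours after seeding, exposed for 48 hours at 37 °C, 5% CO2 to DMSO-diluted compound dilutions, IFN-γ (final 100 ng/mL) and 0.4 mM L-Trp. The resulting data were fitted with a four-parameter logistic model in XLfit. Potency was taken from those fits.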

IDO1 [2] = target: T1, IDO1; assay: IDO1 enzymatic assay; format: biochemical; parameters: His tag (N); made in house; host or cells: E. coli; details: read-out: Enzyme IC50 IDO1
Summary of the method: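 Compound was incubated with 50 nM His-tagged IDO1 from E. coli, 1.3 mM D-tryptophan, 5 mM L-ascorbic acid, methylene blue and 0.4 mg/mL catalase in 50 mM potassium phosphate pH 7.5, 0.1% BSA, at 24 °C for 1.5 hours. Activity was the slope of N'-formylkynurenine formation read continuously at 321 nm for 1 hour. IC50 was obtained from remaining activity versus compound concentration.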

[3] = target: T2, cellular TDO2 in HEK293-TDO2 cells (Homo sapiens, UniProt P48775); assay: 293-TDO2 cell-based assay (Kyn colorimetric); details: 48 hours of incubation
T2 construct: expressed in transfected cells; host or cells: HEK293 (ATCC), stably transfected
Summary of the method: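 HEK293 cells stably expressing TDO2 (10000/well, phenol red-free DMEM, 10% FBS) were dosed 4 h after plating and incubated 48 h at 37° C. Supernatant Kyn was measured after TCA precipitation by 4-(dimethylamino)benzaldehyde colour at 480 nm. IC50 came from four-parameter logistic fits.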

T1 sequence (P14902 whole entry): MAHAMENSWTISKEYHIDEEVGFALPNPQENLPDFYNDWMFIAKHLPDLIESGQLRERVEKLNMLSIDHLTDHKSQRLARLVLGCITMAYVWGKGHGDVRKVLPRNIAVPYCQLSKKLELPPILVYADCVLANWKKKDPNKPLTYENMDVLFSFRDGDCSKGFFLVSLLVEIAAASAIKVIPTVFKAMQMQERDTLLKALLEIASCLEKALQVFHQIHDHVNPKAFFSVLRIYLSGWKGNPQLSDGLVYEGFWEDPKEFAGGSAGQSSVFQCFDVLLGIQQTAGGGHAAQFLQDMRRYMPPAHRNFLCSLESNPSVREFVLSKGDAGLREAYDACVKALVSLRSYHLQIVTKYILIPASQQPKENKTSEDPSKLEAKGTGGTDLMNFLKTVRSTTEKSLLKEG
T2 sequence (P48775 whole entry): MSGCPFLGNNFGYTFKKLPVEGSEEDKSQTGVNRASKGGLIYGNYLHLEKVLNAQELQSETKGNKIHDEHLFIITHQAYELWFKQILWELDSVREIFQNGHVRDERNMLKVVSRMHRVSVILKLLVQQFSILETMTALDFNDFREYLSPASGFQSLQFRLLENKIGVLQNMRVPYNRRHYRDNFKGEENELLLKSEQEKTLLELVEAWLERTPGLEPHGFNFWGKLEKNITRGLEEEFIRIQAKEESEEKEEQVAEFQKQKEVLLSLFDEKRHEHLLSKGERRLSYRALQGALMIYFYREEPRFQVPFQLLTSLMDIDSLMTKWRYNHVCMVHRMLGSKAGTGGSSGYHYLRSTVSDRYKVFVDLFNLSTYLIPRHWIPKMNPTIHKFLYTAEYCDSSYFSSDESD

| Structure (SMILES) | EC50 (IDO1 [1]) | IC50 (IDO1 [2]) | EC50 [3] |
| --- | --- | --- | --- |
| O[C@@H](c1c(C2CC2)ccn2cncc12)[C@H]1CC[C@H](c2ccccc2C(F)(F)F)CC1 (single isomer, unassigned) [Example C116b] | > 10 µM | 5.4 µM | > 10 µM |
| COc1ccccc1C1CCC(C(O)c2c(C3CC3)ccn3cncc23)CC1 (stereo not drawn) [Example C113, (7-Cyclopropylimidazo[1,5-a]pyridin-8-yl)(4-(2-methoxyphenyl)cyclohexyl)methan] | 0.149 µM | 0.055 µM | > 10 µM |
| OC(c1c(C2CC2)ccc2cncn12)C1CCN(c2ccc(F)c3ncccc23)CC1 (stereo not drawn) [Example D175, (6-cyclopropylimidazo[1,5-a]pyridin-5-yl)(1-(8-fluoroquinolin-5-yl)piperidin-4-yl)methanol] | 0.021 µM | 0.022 µM | > 10 µM |
| CC(C)c1ccc2cncn2c1C(O)C1CCC(c2ccc(F)cc2)CC1 (stereo not drawn) [Example D166, (4-(4-fluorophenyl)cyclohexyl)(6-isopropylimidazo[1,5-a]pyridin-5-yl)methanol] | 0.029 µM | 0.041 µM | > 10 µM |
| O[C@@H](c1c(C2CC2)ccn2cncc12)[C@H]1CC[C@H](c2ccc(OC(F)(F)F)cc2)CC1 (single isomer, unassigned) [Example C105b] | > 10 µM | 2 µM | > 10 µM |
| O[C@H](c1c(C2CC2)ccc2cncn12)C1CCN(c2ccc(F)cc2)CC1 (single isomer, unassigned) [Example D171a] | 0.03 µM | 0.015 µM | > 10 µM |
| OC(c1c(C2CC2)ccc2cncn12)C1CCC(c2csc3ccccc23)CC1 (stereo not drawn) [Example D155, (4-(benzo[b]thiophen-3-yl)cyclohexyl)(6-cyclopropylimidazo[1,5-a]pyridin-5-yl)methanol] | 0.087 µM | 0.07 µM | > 10 µM |
| OC(c1c(C2CC2)ccn2cncc12)C1CCN(c2ccccc2)CC1 (stereo not drawn) [Example C136, (7-cyclopropylimidazo[1,5-a]pyridin-8-yl)(1-phenylpiperidin-4-yl)methanol] | 0.029 µM | 0.074 µM | > 10 µM |
| OC(c1c(C2CC2)ccc2cncn12)C1CCC(c2cccc3ccccc23)CC1 (stereo not drawn) [Example D135, (6-cyclopropylimidazo[1,5-a]pyridin-5-yl)(4-(naphthalen-1-yl)cyclohexyl)methanol] | 0.032 µM | 0.032 µM | > 10 µM |
| N#Cc1ccc(C2CCC(C(O)c3c(C4CC4)ccc4cncn34)CC2)cc1 (stereo not drawn) [Example D110, 4-(4-((6-cyclopropylimidazo[1,5-a]pyridin-5-yl)(hydroxy)methyl)cyclohexyl)benzonitrile] | 0.373 µM | 0.04 µM | > 10 µM |
| OC(c1c(C2CC2)ccc2cncn12)C1CCC(c2ccc(F)cc2F)CC1 (stereo not drawn) [Example D127, (6-cyclopropylimidazo[1,5-a]pyridin-5-yl)(4-(2,4-difluorophenyl)cyclohexyl)methanol] | 0.17 µM | 0.04 µM | > 10 µM |
| OC(c1c(C2CC2)ccc2cncn12)C1CCN(c2ccc(Cl)cc2)CC1 (stereo not drawn) [Example D174, (1-(4-chlorophenyl)piperidin-4-yl)(6-cyclopropylimidazo[1,5-a]pyridin-5-yl)methanol] | 0.167 µM | 0.038 µM | > 10 µM |
| OC(c1c(C2CC2)ccc2cncn12)C1CCN(c2ccc3nccc(Cl)c3c2)CC1 (stereo not drawn) [Example D179, (1-(4-chloroquinolin-6-yl)piperidin-4-yl)(6-cyclopropylimidazo[1,5-a]pyridin-5-yl)methanol] | 0.187 µM | 0.026 µM | > 10 µM |
| NS(=O)(=O)Nc1ccc([C@H]2CC[C@H]([C@H](O)c3c(C4CC4)ccc4cncn34)CC2)cc1 [Example D165, 1-(4-((1 S,4r)-4-((S)-(6-cyclopropylimidazo[1,5-a]pyridin-5-yl)(hydroxy)methyl)cyclohexyl)phenyl) sulfuric diamide] | 0.344 µM | 0.028 µM | > 10 µM |
| Oc1cccc(C2CCC(C(O)c3c(C4CC4)ccc4cncn34)CC2)c1 (stereo not drawn) [Example D142, 3-(4-((6-cyclopropylimidazo[1,5-a]pyridin-5-yl)(hydroxy)methyl)cyclohexyl)phenol] | 0.04 µM | 0.032 µM | > 10 µM |
| COc1ccccc1[C@H]1CC[C@H]([C@@H](O)c2c(C3CC3)ccn3cncc23)CC1 (single isomer, unassigned) [Example C113b] | > 10 µM | 8.2 µM | > 10 µM |
| OC(c1c(C2CC2)ccn2cncc12)C1CCN(c2cccc(F)c2)CC1 (stereo not drawn) [Example C138, (7-cyclopropylimidazo[1,5-a]pyridin-8-yl)(1-(3-fluorophenyl)piperidin-4-yl)methanol] | 0.149 µM | 0.067 µM | > 10 µM |

| Structure (SMILES) | EC50 (IDO1 [1]) | IC50 (IDO1 [2]) | EC50 [3] |
| --- | --- | --- | --- |
| O[C@H](c1c(C2CC2)ccn2cncc12)[C@H]1CC[C@H](c2ccnc3ccccc32)CC1 (single isomer, unassigned) [Example C130a] | 0.044 µM | 0.017 µM | > 10 µM |
| OC(c1c(C2CC2)ccc2cncn12)C1CCC(c2ccc(Br)cc2)CC1 (stereo not drawn) [Example D118, (4-(4-bromophenyl)cyclohexyl)(6-cyclopropylimidazo[1,5-a]pyridin-5-yl)methanol] | 0.546 µM | 0.044 µM | > 10 µM |
| O[C@H](c1c(C2CC2)ccn2cncc12)[C@H]1CC[C@H](c2ccc(F)c(Cl)c2)CC1 (single isomer, unassigned) [Example C132a] | 0.188 µM | 0.064 µM | > 10 µM |
| CN(C)C(=O)c1ccc([C@H]2CC[C@H]([C@@H](O)c3c(C4CC4)ccc4cncn34)CC2)cc1 (single isomer, unassigned) [Example D125b] | 9.77 µM | 1.6 µM | > 10 µM |
| CC(C)c1ccc2cncn2c1[C@H](O)[C@H]1CC[C@H](c2cccc(Cl)c2)CC1 (single isomer, unassigned) [Example D168b] | 6.47 µM | > 10 µM | > 10 µM |
| O[C@@H](c1c(C2CC2)ccc2cncn12)[C@H]1CC[C@H](c2ccc(Oc3ccccc3)cc2)CC1 (single isomer, unassigned) [Example D120b] | 4.31 µM | 3.7 µM | > 10 µM |
| O=C(O)c1ccc(N2CCC(C(O)c3c(C4CC4)ccn4cncc34)CC2)cc1 (stereo not drawn) [Example C145, 4-(4-((7-cyclopropylimidazo[1,5-a]pyridin-8-yl)(hydroxy)methyl)piperidin-1-yl)benzoic acid] | > 10 µM | 0.09 µM | > 10 µM |
| OC(c1c(C2CC2)ccc2cncn12)C1CCC(c2ccnc3ccccc23)CC1 (stereo not drawn) [Example D140, (6-cyclopropylimidazo[1,5-a]pyridin-5-yl)(4-(quinolin-4-yl)cyclohexyl)methanol] | 0.042 µM | 0.024 µM | > 10 µM |
| OC(c1c(C2CC2)ccc2cncn12)C1CCN(c2cccc(Cl)c2)CC1 (stereo not drawn) [Example D173, (1-(3-chlorophenyl)piperidin-4-yl)(6-cyclopropylimidazo[15-a]pyridin-5-yl)methanol] | 0.065 µM | 0.03 µM | > 10 µM |
| OC(c1c(C2CC2)ccn2cncc12)C1CCC(c2ccnc3c(F)cccc23)CC1 (stereo not drawn) [Example C129, (7-cyclopropylimidazo[1,5-a]pyridin-8-yl)(4-(8-fluoroquinolin-4-yl)cyclohexyl)methanol] | 0.051 µM | 0.033 µM | > 10 µM |
| COc1ccc(C2CCC(C(O)c3c(C4CC4)ccc4cncn34)CC2)cc1 (stereo not drawn) [Example D102, (6-cyclopropylimidazo[1,5-a]pyridin-5-yl)(4-(4-methoxyphenyl)cyclohexyl)methanol] | 0.074 µM | 0.023 µM | > 10 µM |
| CN(C)C(=O)c1ccc([C@H]2CC[C@H]([C@H](O)c3c(C4CC4)ccc4cncn34)CC2)cc1 (single isomer, unassigned) [Example D125a] | 0.46 µM | 0.014 µM | > 10 µM |
| OC(c1c(C2CC2)ccc2cncn12)C1CCC(c2ccc(Cl)cc2F)CC1 (stereo not drawn) [Example D131, (4-(4-chloro-2-fluorophenyl)cyclohexyl)(6-cyclopropylimidazo[1,5-a]pyridin-5-yl)methanol] | 0.578 µM | 0.047 µM | > 10 µM |
| CC(C)c1ccc2cncn2c1C(O)C1CCC(c2cccc(F)c2)CC1 (stereo not drawn) [Example D167, (4-(3-fluorophenyl)cyclohexyl)(6-isopropylimidazo[1,5-a]pyridin-5-yl)methanol] | 0.04 µM | 0.069 µM | > 10 µM |
| OCCn1cc(-c2ccc(N3CCC(C(O)c4c(C5CC5)ccc5cncn45)CC3)cc2)cn1 (stereo not drawn) [Example D177] | 0.107 µM | 0.025 µM | > 10 µM |
| OC(c1c(C2CC2)ccc2cncn12)[C@H]1CC[C@H](c2ccc(OC3CCOCC3)cc2)CC1 (single isomer, unassigned) [Example D114b] | 3.97 µM | 2.6 µM | > 10 µM |
